Consider six compounds from patent publication US10399940B2, “Substituted pyrrolidines and methods of use” (AbbVie S.à.r.l., priority 2016, dated 2019).

Where two headings read alike, the source gives them in different places.

This assay deals with T1, F508delCFTR (Homo sapiens, UniProt P13569, DEL508-508).
T1 construct: expressed in transfected cells; host or cells: CFBE41o- (human lung derived epithelial cell line), doxycycline-inducible expression
Kind of assay: Cell Surface Expression-Horse Radish Peroxidase (CSE-HRP) assay. The class given is cell-based. As to conditions: CFBE41o-F508delCFTR-HRP cells; for Maximum % activity (with co-corrector): with co-corrector (2 μM); for Maximum % activity (with co-corrector) / Maximum % activity (without co-corrector): normalized to on-plate positive control, highest concentration 20 μM. In short, it runs like this: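 CFBE41o- cells expressed F508delCFTR with HRP in the fourth exofacial loop, induced by 0.5 μg/mL doxycycline for 72 h at 37 °C. Compounds alone or with 2 μM co-corrector ran 18–24 h at 33 °C, 8-point 3-fold from 20 μM. Washed-cell luminol luminescence was normalized to DMSO and positive control, fitted sigmoidally for EC50 (three plates).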

[1] abbreviates: test compound without co-corrector, 18-24 hours at 33° C., read-out: EC50 (without co-corrector).
Where [2] appears, read: with co-corrector (2 μM of 3-[(2R,4R)-4-({[1-(2,2-difluoro-1,3-benzodioxol-5-yl)cyclopropyl]carbonyl}amino)-7-methoxy-3,4-dihydro-2H-chromen-2-yl]benzoic acid), read-out: EC50 (with co-corrector).

T1 sequence (P13569 with tags, fused parts or gaps DEL508-508): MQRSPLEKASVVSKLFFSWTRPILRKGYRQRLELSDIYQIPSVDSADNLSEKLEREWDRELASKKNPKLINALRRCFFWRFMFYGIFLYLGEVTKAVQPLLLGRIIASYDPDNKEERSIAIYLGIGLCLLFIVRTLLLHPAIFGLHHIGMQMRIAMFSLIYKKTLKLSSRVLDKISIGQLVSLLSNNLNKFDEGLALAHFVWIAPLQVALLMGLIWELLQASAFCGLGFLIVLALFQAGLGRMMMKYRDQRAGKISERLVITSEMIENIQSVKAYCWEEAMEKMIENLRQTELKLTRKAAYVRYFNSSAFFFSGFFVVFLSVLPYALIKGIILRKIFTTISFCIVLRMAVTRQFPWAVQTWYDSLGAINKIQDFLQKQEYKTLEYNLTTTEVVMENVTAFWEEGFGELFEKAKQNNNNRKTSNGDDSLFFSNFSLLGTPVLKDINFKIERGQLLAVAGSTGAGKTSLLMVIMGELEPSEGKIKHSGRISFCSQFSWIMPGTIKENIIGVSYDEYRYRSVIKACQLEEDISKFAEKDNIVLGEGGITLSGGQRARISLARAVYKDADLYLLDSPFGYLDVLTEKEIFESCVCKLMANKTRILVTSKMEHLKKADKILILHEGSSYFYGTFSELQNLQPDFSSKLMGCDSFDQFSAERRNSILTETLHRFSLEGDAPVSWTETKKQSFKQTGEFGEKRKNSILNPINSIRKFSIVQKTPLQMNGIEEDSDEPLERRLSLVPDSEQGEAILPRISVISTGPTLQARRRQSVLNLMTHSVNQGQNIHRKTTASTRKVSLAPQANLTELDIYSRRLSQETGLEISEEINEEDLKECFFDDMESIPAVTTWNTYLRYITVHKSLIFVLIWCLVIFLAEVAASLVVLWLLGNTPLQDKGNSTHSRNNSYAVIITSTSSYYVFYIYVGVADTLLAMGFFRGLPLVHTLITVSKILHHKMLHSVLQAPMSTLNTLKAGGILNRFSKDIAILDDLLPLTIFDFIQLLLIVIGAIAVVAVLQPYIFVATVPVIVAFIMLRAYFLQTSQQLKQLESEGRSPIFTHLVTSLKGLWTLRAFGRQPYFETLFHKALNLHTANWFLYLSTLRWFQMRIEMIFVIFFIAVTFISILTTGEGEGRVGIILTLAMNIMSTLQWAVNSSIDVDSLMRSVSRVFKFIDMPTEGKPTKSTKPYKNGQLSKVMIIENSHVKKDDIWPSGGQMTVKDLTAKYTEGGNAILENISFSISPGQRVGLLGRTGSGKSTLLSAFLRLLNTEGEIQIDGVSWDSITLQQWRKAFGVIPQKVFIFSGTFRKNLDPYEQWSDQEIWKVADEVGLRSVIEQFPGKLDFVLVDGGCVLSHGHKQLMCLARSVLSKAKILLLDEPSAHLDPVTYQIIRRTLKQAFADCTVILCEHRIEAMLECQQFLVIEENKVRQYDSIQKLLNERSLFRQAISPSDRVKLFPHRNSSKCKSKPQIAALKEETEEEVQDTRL

In the case of `COc1ncc(C(F)(F)F)cc1CO[C@H]1[C@H](C(C)(C)C)[C@@H](C(=O)O)N(C(=O)OC(C)C)[C@H]1c1cccc(C(C)(C)C)c1` [Example 153, (2S,3R,4S,5S)-3-tert-butyl-5-(3-tert-butylphenyl)-4-{[2-methoxy-5-(trifluoromethyl)pyridin-3-yl]methoxy}-1-{[(propan-2-yl)oxy]carbonyl}pyrrolidine-2-carboxylic acid], the “Maximum % activity (with co-corrector)” value was “++ (≥150 and <350)”; the “Maximum % activity (without co-corrector)” value is “+ (<100)”. Also, the EC50 (usually the midpoint of the concentration-response curve) under setting [1] is under 1000 nM. The concentration for a half-maximal effect (EC50) under setting [2] is under 1000 nM.

`COc1ncc(C(F)(F)F)cc1CO[C@H]1[C@H](C(C)(C)C)[C@@H](C(=O)O)N(C(=O)[C@H]2C[C@@H]3CC[C@H]2O3)[C@H]1c1cccc(C(C)(C)C)c1` [Example 154, (2S,3R,4S,5S)-3-tert-butyl-5-(3-tert-butylphenyl)-4-{[2-methoxy-5-(trifluoromethyl)pyridin-3-yl]methoxy}-1-[(1R,2S,4S)-7-oxabicyclo[2.2.1]heptane-2-carbonyl]pyrrolidine-2-carboxylic acid]: the “Maximum % activity (with co-corrector)” value is “++ (≥150 and <350)”; the “Maximum % activity (without co-corrector)” value is given as “+ (<100)”. In addition, the EC50 under setting [1] was under 1000 nM. Moreover, the EC50 under setting [2] is under 1000 nM.

For the compound `COc1ncc(C2CCC2)cc1CO[C@H]1[C@H](C(C)(C)C)[C@@H](C(=O)O)N(C(=O)[C@@H]2CCCO2)[C@H]1c1ccccc1C(F)(F)F` [Example 155, (2S,3R,4S,5S)-3-tert-butyl-4-[(5-cyclobutyl-2-methoxypyridin-3-yl)methoxy]-1-[(2S)-oxolane-2-carbonyl]-5-[2-(trifluoromethyl)phenyl]pyrrolidine-2-carboxylic acid], the “Maximum % activity (with co-corrector)” value was “+++ (≥350)”; the “Maximum % activity (without co-corrector)” value is “++ (≥100 and <200)”. Also, the EC50 under setting [1] lay in the range of 1000 to 10000 nM. Moreover, under setting [2], the EC50 was under 1000 nM.

With `COc1ncc(C(F)(F)F)cc1CO[C@H]1[C@H](C(C)(C)C)[C@@H](C(=O)O)N(C(=O)[C@@H]2CCCO2)[C@H]1c1ccccc1C(F)(F)F` [Example 156, (2S,3R,4S,5S)-3-tert-butyl-4-{[2-methoxy-5-(trifluoromethyl)pyridin-3-yl]methoxy}-1-[(2S)-oxolane-2-carbonyl]-5-[2-(trifluoromethyl)phenyl]pyrrolidine-2-carboxylic acid], the “Maximum % activity (with co-corrector)” value is “+++ (≥350)”; the “Maximum % activity (without co-corrector)” value was “++ (≥100 and <200)”. The EC50 under setting [1] was 1000 to 10000 nM. Moreover, the EC50 under setting [2] was under 1000 nM.

Regarding `COc1ncc(C(F)(F)F)cc1CO[C@H]1[C@H](C(C)(C)C)[C@@H](C(=O)O)N(C(=O)[C@@H]2CCCCO2)[C@H]1c1cccc(C(C)(C)C)c1` [Example 158, (2S,3R,4S,5S)-3-tert-butyl-5-(3-tert-butylphenyl)-4-{[2-methoxy-5-(trifluoromethyl)pyridin-3-yl]methoxy}-1-[(2S)-oxane-2-carbonyl]pyrrolidine-2-carboxylic acid], the “Maximum % activity (with co-corrector)” value is “+++ (≥350)”; the “Maximum % activity (without co-corrector)” value is “++ (≥100 and <200)”. In addition, the EC50 under setting [1] is under 1000 nM. In addition, under setting [2], the EC50 was under 1000 nM.

Consider `COc1ncc(C(F)(F)F)cc1CO[C@H]1[C@H](C(C)(C)C)[C@@H](C(=O)O)N(C(=O)[C@@H]2CCCO2)[C@H]1c1ccccc1Br` [Example 159, (2S,3R,4S,5S)-5-(2-bromophenyl)-3-tert-butyl-4-{[2-methoxy-5-(trifluoromethyl)pyridin-3-yl]methoxy}-1-[(2S)-oxolane-2-carbonyl]pyrrolidine-2-carboxylic acid], for which the “Maximum % activity (with co-corrector)” value is reported as “+++ (≥350)” and the “Maximum % activity (without co-corrector)” value is given as “+ (<100)”. Besides, under setting [1], the EC50 was under 1000 nM. In addition, under setting [2], the EC50 is under 1000 nM.
